Measurements: patent publication US9279806B2, “Water-soluble AIE luminogens for monitoring and retardation of fibrillation of amyloid proteins” (THE HONG KONG UNIVERSITY OF SCIENCE AND TECHNOLOGY, priority 2005, dated 2016)

Experiments:
G-quadruplex of G1 = assay: Isothermal titration calorimetry (ITC); format: binding, human
Experimental: It is clear that TTAPE is highly affinitive to K^+-containing G-quadruplex but not its Na^+ cousin. Isothermal titration calorimetry (ITC) measurements are performed, in an effort to understand the thermodynamic basis for the binding affinity difference. ITC is a sensitive technique for the studies of bimolecular processes and can provide direct information about binding affinities and associated thermodynamic parameters. A calorimetric titration experiment was performed at 25.00±0.01° C. on a MicroCal VP-ITC apparatus. G1 solutions for the ITC experiments were prepared in all-potassium (K-Tris: 5 mM Tris-HCl and 150 mM KCl) or all-sodium (Na-Tris: 5 mM Tris-HCl and 150 mM NaCl) buffer at pH 7.50, as required. The buffer solution of G1 was heated to 85° C. and cooled slowly to ensure the folding of the DNA into G-quadruplex structure. For a typical titration, a series of 10 μL aliquots of TTAPE solution were injected into the G1/M^+ solution at a 240 s interval. The heat for each injection was determined by the integration of the peak area in the thermogram with respect to time. Blank titration was conducted by injecting TTAPE into the sample cell containing only buffer under the same condition. The interaction heat was corrected by subtracting the blank heat from that for the TTAPE/G1 titration. The kb values were derived by fitting the isotherm curves with Origin 5.0 software.

[1] = test system: G1 (ssDNA that mimics human telomeric sequence) / G-quadruplex; assay: DNA probing and quadruplex recognition by FL/CD of TTAPE with G1; format: binding
Experimental: G1 is a 21-mer ssDNA that mimics human telomeric sequence. When the DNA is added into a solution of TTAPE in a Tris-HCl buffer, the solution starts to luminesce (FIG. 27A). Similar FL “lightup” phenomenon has been observed in the thiazole orange system. The I/I0 ratio of TTAPE at 470 nm increases rapidly in a narrow DNA concentration range and reaches its maximum at [G1]=5 μM (FIG. 27B). While conventional FL dyes suffer from self-quenching problems at high dye concentrations, the FL of TTAPE is continuously intensified with increasing its concentration (FIG. 28 and FIG. 27B), thanks to its unique AIE feature. In the aqueous buffer, the cationic dye spontaneously binds to the anionic DNA via electrostatic attraction, resulting in the formation of a TTAPE/G1 complex. Hydrophobic interaction between TTAPE and G1 may have also played a role in the binding process. These intermolecular forces lock conformations of the TTAPE molecules bound to the G1 strands. Consequently, the intramolecular rotations of TTAPE are restricted, which thus blocks its radiationless relaxation pathways and activates its FL process.
A complex of ssDNA and TTAPE was prepared by mixing 10 μL G 1 (0.1 mM) and 50 μL TTAPE (0.01 mM) in 5 mM Tris-HCl buffer in a 1.5 ml Eppendorf cup. The solution was incubated at 4° C. for 30 min. G-quadruplex formation was induced by adding 10 μl of a 1.0 M KCl solution into the Eppendorf cup. The final concentrations of TTAPE and G1 were kept at 4.5 and 9.0 μM, respectively. For other cationic species, the same amounts of corresponding salts were used. Kinetic experiment was conducted immediately after the injection of the cationic solution, while other spectral measurements were performed after an incubation period of 30 min.
DNA samples of G1, C1 and C2 were obtained from Operon in desalt purity and used without further purification. G1 was chosen as a model ssDNA mimicking the human telomeric repeat sequence d(T2AG3), which is capable of forming intramolecular G-quadruplex. Concentrations of the DNA strands were determined by measuring their absorptivity (E) values at 260 nm in a 100 μL quartz cuvette [ε(×10^5 M^−1 cm^−1): 2.14 (G1), 1.85 (C1), 1.85 (C2)]. Water was purified by a Millipore filtration system. Buffer solution was prepared by titrating 5 mM Tris with HCl until its pH value reached 7.50. All experiments were performed at room temperature unless otherwise specified.

HG21 DNA = assay: CD spectra: G-quadruplex induction by TPE derivatives; format: biochemical; conditions: 9 μM DNA, 4.5 μM TPE derivative, Tris-HCl pH 7.5, 25 °C
Experimental: [TPE]=4.5 μM; [HG21]=9 μM and [K^+]=0.5 M.
CD spectral profiles of 9 μM DNA in 5 mM Tris-HCl buffer solutions (pH 7.5) incubated under 25° C. with four different TPE derivatives at 4.5 μM or with 0.5M K^+ ions are studied (FIG. 77). TPE derivatives 1-4 are TTAPE (Example 6), TPE-2 (chemical structure is not shown herein), TPE-3 (chemical structure is not shown herein) and TPE-C2N+ (Example 3), respectively. […] On the other hand, DNA incubated with TTAPE or the known quadruplex inducer; K^+ ions have very similar spectral profiles, while the ellipticities of DNA/TTAPE are somehow weaker than DNA/K^+.

[2] = entry 1: K+ added to TTAPE/G1 mixture, room temperature
[3] = entry 2: G1 added to TTAPE/K+ mixture
[4] = entry 3: TTAPE added to G1/K+ mixture

CC[N+](CC)(CC)CCOc1ccc(C(=C(c2ccc(OCC[N+](CC)(CC)CC)cc2)c2ccc(OCC[N+](CC)(CC)CC)cc2)c2ccc(OCC[N+](CC)(CC)CC)cc2)cc1.[Br-].[Br-].[Br-].[Br-] [TTAPE, 1,1,2,2-tetrakis[4-(2-triethylammonioethoxy)phenyl]ethene tetrabromide]
Gibbs energy (ΔG°) (G-quadruplex of G1; G1/K+ buffer, 25 °C): -7.3 kcal/mol | Binding constant (G-quadruplex of G1; Na+ titration (Na-Tris)): too small to be determined accurately | Red-shift of excitation and emission spectra on quadruplex formation ([1]; K+ added to TTAPE/G1): ~20 nm | G1 concentration at which I/I0 at 470 nm reaches its maximum ([1]; TTAPE 4.5 μM in Tris-HCl buffer): 5 µM | CD intensity (relative intensity at 295 nm) [1, 2]: 1.00 | FL intensity (relative intensity at 492 nm) [1, 2]: 1.00 | CD intensity (relative intensity at 295 nm) [1, 3]: 0.92 | FL intensity (relative intensity at 492 nm) [1, 3]: 0.82 | CD intensity (relative intensity at 295 nm) [1, 4]: 0.88 | FL intensity (relative intensity at 492 nm) [1, 4]: 0.70 | G-quadruplex induction (CD spectral profile) (HG21 DNA): acts as an internal quadruplex inducer under 25 °C
